≈ marks a conversion by molar mass, not a printed value.
Columns and labels:
Escherichia coli [1] = experiment: Antibacterial activity against Escherichia coli 25922 incubated for 18 hrs by two-fold serial dilution method; type: functional
[2] = Unbound fraction in human plasma at 5 uM measured after 24 hrs by LC-MS/MS analysis; type: ADME, cell-free
Escherichia coli [3] = experiment: Antibacterial activity against Escherichia coli 25922 incubated for 18 hrs in presence of 50% mouse serum by two-fold serial dilution method; type: functional
[4] = target: Signal peptidase I (Escherichia coli K-12) (UniProt P00803); experiment: Inhibition of LepB in Escherichia coli IMP assessed as antibacterial activity by measuring reduction in bacterial growth incubated for 18 hrs by two-fold serial dilution method
Sequence of Signal peptidase I (Escherichia coli K-12) (P00803 whole entry): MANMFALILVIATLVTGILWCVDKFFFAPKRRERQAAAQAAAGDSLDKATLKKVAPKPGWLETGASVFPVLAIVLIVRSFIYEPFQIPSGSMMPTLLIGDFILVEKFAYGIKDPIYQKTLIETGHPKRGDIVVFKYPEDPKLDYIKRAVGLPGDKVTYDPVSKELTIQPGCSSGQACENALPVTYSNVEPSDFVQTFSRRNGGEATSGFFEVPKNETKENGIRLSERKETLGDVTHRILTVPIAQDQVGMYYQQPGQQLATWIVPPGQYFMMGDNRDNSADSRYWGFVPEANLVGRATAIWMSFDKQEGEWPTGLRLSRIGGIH

Row | SMILES | MIC (Escherichia coli [1]) | fraction unbound at 24 h, 5 µM [2] | MIC (Escherichia coli [3]) | MIC [4]
1 | Cc1nc(-c2ccc(C(C)(C)C)cc2)nc(N)c1C(=O)N[C@@H](CCN)C(=O)N(C)[C@@H]1C(=O)N[C@@H](C)C(=O)N[C@H](C(=O)NCC#N)Cc2ccc(OCCN)c(c2)-c2cc1ccc2OCCN | 0.11 µg/mL (≈ 0.122 µM) | 0.12 | 0.11 µg/mL | 0.005 µg/mL (≈ 0.00552 µM)
2 | CCCCCCCCCCCCC(=O)N[C@@H](CCN)C(=O)N(C)[C@@H]1C(=O)N[C@@H](C)C(=O)N[C@H](C(=O)NCC#N)Cc2ccc(OCCN)c(c2)-c2cc1ccc2OCCN | 0.23 µg/mL (≈ 0.276 µM) | 0.01 | 3.8 µg/mL | 0.007 µg/mL (≈ 0.00839 µM)
3 | CCCCCCCC(=O)N[C@@H](CCN)C(=O)N(C)[C@@H]1C(=O)N[C@@H](C)C(=O)N[C@H](C(=O)NCC#N)Cc2ccc(OCCN)c(c2)-c2cc1ccc2OCCN | 31 µg/mL (≈ 40.6 µM) | 0.59 | 60 µg/mL | 0.35 µg/mL (≈ 0.458 µM)
4 | CC(C)CCc1ccc(-c2ccc(C(=O)N[C@@H](CCN)C(=O)N(C)[C@@H]3C(=O)N[C@@H](C)C(=O)N[C@H](C(=O)NCC#N)Cc4ccc(OCCN)c(c4)-c4cc3ccc4OCCN)cc2)cc1 | 0.18 µg/mL (≈ 0.203 µM) |  | 3.8 µg/mL | 0.015 µg/mL (≈ 0.0169 µM)
5 | Cc1nc(-c2ccc(C(C)(C)C)cc2)c(N)cc1C(=O)N[C@@H](CCN)C(=O)N(C)[C@@H]1C(=O)N[C@@H](C)C(=O)N[C@H](C(=O)NCC#N)Cc2ccc(OCCN)c(c2)-c2cc1ccc2OCCN | 0.34 µg/mL (≈ 0.376 µM) |  | 0.12 µg/mL | 0.021 µg/mL (≈ 0.0232 µM)
6 | CCCCCCCCCCCC(=O)N[C@@H](CCN)C(=O)N(C)[C@@H]1C(=O)N[C@@H](C)C(=O)N[C@H](C(=O)NCC#N)Cc2ccc(OCCN)c(c2)-c2cc1ccc2OCCN | 0.98 µg/mL (≈ 1.2 µM) | 0.03 | 7.5 µg/mL | 0.007 µg/mL (≈ 0.00854 µM)
7 | CCc1ccc(-c2ccc(C(=O)N[C@@H](CCN)C(=O)N(C)[C@@H]3C(=O)N[C@@H](C)C(=O)N[C@H](C(=O)NCC#N)Cc4ccc(OCCN)c(c4)-c4cc3ccc4OCCN)c(C)c2)cc1 | 0.31 µg/mL (≈ 0.36 µM) | 0.053 | 0.75 µg/mL | 0.008 µg/mL (≈ 0.0093 µM)
8 | C[C@@H]1NC(=O)[C@@H](N(C)C(=O)[C@H](CCN)NC(=O)c2ccc(-c3ccc(C(C)(C)C)cc3)nc2N)c2ccc(OCCN)c(c2)-c2cc(ccc2OCCN)C[C@@H](C(=O)NCC#N)NC1=O | 0.45 µg/mL (≈ 0.506 µM) | 0.063 | 0.89 µg/mL | 0.011 µg/mL (≈ 0.0124 µM)
9 | Cc1cc(-c2ccc(C(C)C)cc2)ccc1C(=O)N[C@@H](CCN)C(=O)N(C)[C@@H]1C(=O)N[C@@H](C)C(=O)N[C@H](C(=O)NCC#N)Cc2ccc(OCCN)c(c2)-c2cc1ccc2OCCN | 0.15 µg/mL (≈ 0.172 µM) | 0.086 | 0.96 µg/mL | 0.007 µg/mL (≈ 0.00801 µM)
10 | Cc1nc(-c2ccc(C(C)(C)C)cc2)ccc1C(=O)N[C@@H](CCN)C(=O)N(C)[C@@H]1C(=O)N[C@@H](C)C(=O)N[C@H](C(=O)NCC#N)Cc2ccc(OCCN)c(c2)-c2cc1ccc2OCCN | 0.12 µg/mL (≈ 0.135 µM) |  | 0.12 µg/mL | 0.004 µg/mL (≈ 0.0045 µM)
11 | Cc1nc(-c2ccc(C(C)(C)C)cc2)ncc1C(=O)N[C@@H](CCN)C(=O)N(C)[C@@H]1C(=O)N[C@@H](C)C(=O)N[C@H](C(=O)NCC#N)Cc2ccc(OCCN)c(c2)-c2cc1ccc2OCCN | 0.14 µg/mL (≈ 0.157 µM) | 0.23 | 0.2 µg/mL | 0.004 µg/mL (≈ 0.00449 µM)
12 | Cc1cc(-c2ccc(Cl)cc2)ccc1C(=O)N[C@@H](CCN)C(=O)N(C)[C@@H]1C(=O)N[C@@H](C)C(=O)N[C@H](C(=O)NCC#N)Cc2ccc(OCCN)c(c2)-c2cc1ccc2OCCN | 0.83 µg/mL (≈ 0.958 µM) | 0.13 | 2.3 µg/mL | 0.01 µg/mL (≈ 0.0115 µM)
13 | CCCCCCCCCCC(=O)N[C@@H](CCN)C(=O)N(C)[C@@H]1C(=O)N[C@@H](C)C(=O)N[C@H](C(=O)NCC#N)Cc2ccc(OCCN)c(c2)-c2cc1ccc2OCCN | 3.8 µg/mL (≈ 4.71 µM) | 0.09 | 15 µg/mL | 0.023 µg/mL (≈ 0.0285 µM)
14 | Cc1cc(-c2ccccc2)ccc1C(=O)N[C@@H](CCN)C(=O)N(C)[C@@H]1C(=O)N[C@@H](C)C(=O)N[C@H](C(=O)NCC#N)Cc2ccc(OCCN)c(c2)-c2cc1ccc2OCCN | 3 µg/mL (≈ 3.61 µM) | 0.34 | 2 µg/mL | 0.023 µg/mL (≈ 0.0276 µM)
15 | Cc1nc(-c2ccc(C(C)(C)C)cc2)nc(C)c1C(=O)N[C@@H](CCN)C(=O)N(C)[C@@H]1C(=O)N[C@@H](C)C(=O)N[C@H](C(=O)NCC#N)Cc2ccc(OCCN)c(c2)-c2cc1ccc2OCCN | 0.13 µg/mL (≈ 0.144 µM) | 0.22 | 0.17 µg/mL | 0.003 µg/mL (≈ 0.00332 µM)
16 | CNc1nc(-c2ccc(C(C)(C)C)cc2)ncc1C(=O)N[C@@H](CCN)C(=O)N(C)[C@@H]1C(=O)N[C@@H](C)C(=O)N[C@H](C(=O)NCC#N)Cc2ccc(OCCN)c(c2)-c2cc1ccc2OCCN | 0.34 µg/mL (≈ 0.376 µM) |  | 0.68 µg/mL | 0.007 µg/mL (≈ 0.00773 µM)

Row | SMILES | MIC (Escherichia coli [1]) | fraction unbound at 24 h, 5 µM [2] | MIC (Escherichia coli [3]) | MIC [4]
17 | Cc1cc(-c2ccc(C(C)(C)C)cc2)ncc1C(=O)N[C@@H](CCN)C(=O)N(C)[C@@H]1C(=O)N[C@@H](C)C(=O)N[C@H](C(=O)NCC#N)Cc2ccc(OCCN)c(c2)-c2cc1ccc2OCCN | 0.12 µg/mL (≈ 0.135 µM) | 0.11 | 0.24 µg/mL | 0.004 µg/mL (≈ 0.0045 µM)
18 | CCCCCCCCCC(=O)N[C@@H](CCN)C(=O)N(C)[C@@H]1C(=O)N[C@@H](C)C(=O)N[C@H](C(=O)NCC#N)Cc2ccc(OCCN)c(c2)-c2cc1ccc2OCCN | 15 µg/mL (≈ 18.9 µM) |  | 51 µg/mL | 0.1 µg/mL (≈ 0.126 µM)
19 | Cc1cc(-c2ccc(CC(C)C)cc2)ccc1C(=O)N[C@@H](CCN)C(=O)N(C)[C@@H]1C(=O)N[C@@H](C)C(=O)N[C@H](C(=O)NCC#N)Cc2ccc(OCCN)c(c2)-c2cc1ccc2OCCN | 0.08 µg/mL (≈ 0.0901 µM) | 0.001 | 0.83 µg/mL | 0.006 µg/mL (≈ 0.00676 µM)
20 | CCCCCCCCCCCCCC(=O)N[C@@H](CCN)C(=O)N(C)[C@@H]1C(=O)N[C@@H](C)C(=O)N[C@H](C(=O)NCC#N)Cc2ccc(OCCN)c(c2)-c2cc1ccc2OCCN | 0.24 µg/mL (≈ 0.283 µM) |  | 3.8 µg/mL | 0.014 µg/mL (≈ 0.0165 µM)
21 | Cc1nc(-c2ccc(C(C)(C)C)cc2)cc(N)c1C(=O)N[C@@H](CCN)C(=O)N(C)[C@@H]1C(=O)N[C@@H](C)C(=O)N[C@H](C(=O)NCC#N)Cc2ccc(OCCN)c(c2)-c2cc1ccc2OCCN | 0.12 µg/mL (≈ 0.133 µM) |  | 0.08 µg/mL | 0.007 µg/mL (≈ 0.00774 µM)
22 | Cc1cc(-c2ccc(C(C)(C)C)cc2)nc(C)c1C(=O)N[C@@H](CCN)C(=O)N(C)[C@@H]1C(=O)N[C@@H](C)C(=O)N[C@H](C(=O)NCC#N)Cc2ccc(OCCN)c(c2)-c2cc1ccc2OCCN | 0.18 µg/mL (≈ 0.199 µM) | 0.083 | 0.12 µg/mL | 0.004 µg/mL (≈ 0.00443 µM)
23 | Cc1cc(-c2ccc(C(F)(F)F)cc2)ccc1C(=O)N[C@@H](CCN)C(=O)N(C)[C@@H]1C(=O)N[C@@H](C)C(=O)N[C@H](C(=O)NCC#N)Cc2ccc(OCCN)c(c2)-c2cc1ccc2OCCN | 0.41 µg/mL (≈ 0.456 µM) | 0.078 | 1.4 µg/mL | 0.014 µg/mL (≈ 0.0156 µM)
24 | CCCCc1ccc(-c2ccc(C(=O)N[C@@H](CCN)C(=O)N(C)[C@@H]3C(=O)N[C@@H](C)C(=O)N[C@H](C(=O)NCC#N)Cc4ccc(OCCN)c(c4)-c4cc3ccc4OCCN)cc2)cc1 | 0.2 µg/mL (≈ 0.229 µM) |  | 2.1 µg/mL | 0.016 µg/mL (≈ 0.0183 µM)
25 | Cc1cc(-c2ccc(-c3ccccc3)cc2)ccc1C(=O)N[C@@H](CCN)C(=O)N(C)[C@@H]1C(=O)N[C@@H](C)C(=O)N[C@H](C(=O)NCC#N)Cc2ccc(OCCN)c(c2)-c2cc1ccc2OCCN | 0.22 µg/mL (≈ 0.242 µM) | 0.017 | 1.5 µg/mL | 0.043 µg/mL (≈ 0.0474 µM)
26 | Cc1cc(-c2ccc(C(C)(C)C)cc2)cc(C)c1C(=O)N[C@@H](CCN)C(=O)N(C)[C@@H]1C(=O)N[C@@H](C)C(=O)N[C@H](C(=O)NCC#N)Cc2ccc(OCCN)c(c2)-c2cc1ccc2OCCN | 0.17 µg/mL (≈ 0.188 µM) |  | 0.34 µg/mL | 0.005 µg/mL (≈ 0.00554 µM)
27 | CCCCCCCCC(=O)N[C@@H](CCN)C(=O)N(C)[C@@H]1C(=O)N[C@@H](C)C(=O)N[C@H](C(=O)NCC#N)Cc2ccc(OCCN)c(c2)-c2cc1ccc2OCCN | 23 µg/mL (≈ 29.6 µM) |  | 61 µg/mL | 0.12 µg/mL (≈ 0.154 µM)
28 | Cc1cc(-c2ccc(C(C)(C)C)cc2)ccc1C(=O)N[C@@H](CCN)C(=O)N(C)[C@@H]1C(=O)N[C@@H](C)C(=O)N[C@H](C(=O)NCC#N)Cc2ccc(OCCN)c(c2)-c2cc1ccc2OCCN | 0.12 µg/mL (≈ 0.135 µM) | 0.001 | 0.44 µg/mL | 0.011 µg/mL (≈ 0.0124 µM)
29 | Cc1cc(-c2ccc(C(C)(C)C)cc2)nc(N)c1C(=O)N[C@@H](CCN)C(=O)N(C)[C@@H]1C(=O)N[C@@H](C)C(=O)N[C@H](C(=O)NCC#N)Cc2ccc(OCCN)c(c2)-c2cc1ccc2OCCN | 0.23 µg/mL (≈ 0.254 µM) | 0.058 | 0.45 µg/mL | 0.007 µg/mL (≈ 0.00774 µM)
30 | C[C@@H]1NC(=O)[C@@H](N(C)C(=O)[C@H](CCN)NC(=O)c2ccc(-c3ccc(Cl)cc3)cc2)c2ccc(OCCN)c(c2)-c2cc(ccc2OCCN)C[C@@H](C(=O)NCC#N)NC1=O | 1.5 µg/mL (≈ 1.76 µM) | 0.2 | 3.8 µg/mL | 0.022 µg/mL (≈ 0.0258 µM)
31 | C[C@@H]1NC(=O)[C@@H](N(C)C(=O)[C@H](CCN)NC(=O)c2cnc(-c3ccc(C(C)(C)C)cc3)cc2N)c2ccc(OCCN)c(c2)-c2cc(ccc2OCCN)C[C@@H](C(=O)NCC#N)NC1=O | 0.22 µg/mL (≈ 0.247 µM) |  | 0.34 µg/mL | 0.011 µg/mL (≈ 0.0124 µM)

— ChEMBL document CHEMBL5370681, “Lipid Tales: Optimizing Arylomycin Membrane Anchors” (ACS Med Chem Lett, 2023)
